Measured values: ChEMBL document CHEMBL1201862, “PubChem BioAssay data set” (2004)
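Step 1: Grow cells in 96-well plates. Step 2: Expose to compound for 48 hours at 5 concentrations. Step 3: Interpolate endpoints linearly; if unreached, use highest concentration. GI50: concentration for 50% inhibition of growth.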 The source made the active and inactive calls. No stated cut-off is given here; in the data, active = GI50 up to about 1.1 µM and inactive = higher.

What was measured:
Test in all cases: inhibition of tumour cell growth, NCI panel, 48 h
[1] = test system: U-251
[2] = test system: ACHN
[3] = test system: Hs-578T
[4] = test system: OVCAR-5
[5] = test system: A498
[6] = test system: SW-620
[7] = test system: OVCAR-8
[8] = test system: HOP-92
[9] = test system: RPMI-8226
[10] = test system: HL-60
[11] = test system: IGROV-1
[12] = test system: SK-MEL-28
[13] = test system: PC-3
[14] = test system: OVCAR-3
[15] = test system: DU-145
[16] = test system: SNB-75
[17] = test system: SK-MEL-2
[18] = test system: LOX IMVI
[19] = test system: SR
[20] = test system: MDA-N

| Structure (SMILES) | GI50 [1] | GI50 [2] | GI50 [3] | GI50 [4] | GI50 [5] | GI50 [6] | GI50 [7] | GI50 [8] | GI50 [9] | GI50 [10] | GI50 [11] | GI50 [12] | GI50 [13] | GI50 [14] | GI50 [15] | GI50 [16] | GI50 [17] | GI50 [18] | GI50 [19] | GI50 [20] |
| --- | --- | --- | --- | --- | --- | --- | --- | --- | --- | --- | --- | --- | --- | --- | --- | --- | --- | --- | --- | --- |
| NCCCCN(CCCN)Cc1ccccc1 | > 100 µM (inactive) | > 100 µM (inactive) | > 100 µM (inactive) | > 100 µM (inactive) | > 100 µM (inactive) | > 100 µM (inactive) | > 100 µM (inactive) | > 100 µM (inactive) | > 100 µM (inactive) | > 100 µM (inactive) | 60 µM (inactive) | > 100 µM (inactive) | > 100 µM (inactive) | > 100 µM (inactive) | > 100 µM (inactive) | 20.1 µM (inactive) | > 100 µM (inactive) |  |  |  |
| O=Cc1ccc(CCl)cc1 | 18.2 µM (inactive) | 22.5 µM (inactive) |  | 20.5 µM (inactive) | 29 µM (inactive) | 21.5 µM (inactive) | 18.8 µM (inactive) | 27.7 µM (inactive) |  | 4.56 µM (inactive) | 20.8 µM (inactive) | 17.5 µM (inactive) |  | 19.1 µM (inactive) |  | > 10 µM (inactive) | 17.2 µM (inactive) | 11 µM (inactive) | 19.5 µM (inactive) |  |
| Nc1ccc(C2(c3ccc(N)cc3)C3CC4CC(C3)CC2C4)cc1 | 18.3 µM (inactive) | 18.7 µM (inactive) |  | 15.8 µM (inactive) | 21 µM (inactive) | 11.4 µM (inactive) | 7.73 µM (inactive) | 12.4 µM (inactive) |  | 19.2 µM (inactive) | 9.59 µM (inactive) | 14.9 µM (inactive) | 14.9 µM (inactive) | 10.9 µM (inactive) |  |  | 18.5 µM (inactive) | 16.2 µM (inactive) | 14.5 µM (inactive) | 18.6 µM (inactive) |
| Cc1c2cc[n+](C)cc2c(C)c2c1[nH]c1ccc(O)cc12 [ELLIPTINIUM ACETATE] | 1.32 µM (inactive) |  | 0.387 µM (active) | 71.9 µM (inactive) | 52.5 µM (inactive) | 14 µM (inactive) | 11.6 µM (inactive) | 19.3 µM (inactive) | 36.7 µM (inactive) | 19 µM (inactive) | 16.6 µM (inactive) | 6.87 µM (inactive) | 28.4 µM (inactive) | 23.9 µM (inactive) | 5.46 µM (inactive) | 2.36 µM (inactive) | 66.2 µM (inactive) | 31 µM (inactive) |  | 47.8 µM (inactive) |
| C#CCn1c(=O)c(C#N)c(O)c2cc3ccccc3nc21 |  |  |  | > 84.9 µM (inactive) | > 100 µM (inactive) | > 100 µM (inactive) | > 100 µM (inactive) | > 100 µM (inactive) | > 100 µM (inactive) | > 100 µM (inactive) | > 100 µM (inactive) | > 100 µM (inactive) |  | > 100 µM (inactive) |  | > 100 µM (inactive) | > 100 µM (inactive) | > 100 µM (inactive) |  |  |
| CCN(CC)CCN(C(=O)c1ccc(F)cc1)c1ccccc1N | > 10 µM (inactive) | > 10 µM (inactive) | > 10 µM (inactive) | > 10 µM (inactive) | > 10 µM (inactive) | > 10 µM (inactive) | > 10 µM (inactive) |  | > 10 µM (inactive) | > 10 µM (inactive) | > 10 µM (inactive) | > 10 µM (inactive) | > 10 µM (inactive) | > 10 µM (inactive) | > 10 µM (inactive) | > 10 µM (inactive) | > 10 µM (inactive) | > 10 µM (inactive) | > 10 µM (inactive) | > 10 µM (inactive) |
| CC(=O)OCCCCn1cnc2nc(Nc3ccccc3)nc(Cl)c21 | > 100 µM (inactive) | 60.7 µM (inactive) | 36.2 µM (inactive) |  | 73.1 µM (inactive) | > 100 µM (inactive) | > 100 µM (inactive) | 51.4 µM (inactive) | > 100 µM (inactive) | > 100 µM (inactive) | > 100 µM (inactive) | > 100 µM (inactive) | 42.5 µM (inactive) | 55.1 µM (inactive) |  | 50.7 µM (inactive) | > 100 µM (inactive) | 67.5 µM (inactive) | > 100 µM (inactive) | 31.2 µM (inactive) |
| CCCCC(NC(=O)CC)C(=O)O (stereo not drawn) | > 100 µM (inactive) |  |  | > 100 µM (inactive) | > 100 µM (inactive) | > 100 µM (inactive) | > 100 µM (inactive) | > 100 µM (inactive) | > 100 µM (inactive) | > 100 µM (inactive) | > 100 µM (inactive) | > 100 µM (inactive) |  | > 100 µM (inactive) |  | > 100 µM (inactive) | > 100 µM (inactive) | > 100 µM (inactive) |  |  |
| COc1ccc(-c2nnc(-c3nsc4ccccc34)o2)cc1 | 79.6 µM (inactive) | 33 µM (inactive) |  | > 100 µM (inactive) |  | > 100 µM (inactive) | 93.5 µM (inactive) | 43.2 µM (inactive) | 19.3 µM (inactive) |  | 58.6 µM (inactive) | > 100 µM (inactive) |  | 28.3 µM (inactive) |  | 17.5 µM (inactive) | > 100 µM (inactive) | 47.9 µM (inactive) | 31.9 µM (inactive) |  |
| c1ccc2c(c1)SC1Sc3ccccc3[S+]21 (stereo not drawn) | 20.6 µM (inactive) | 14.1 µM (inactive) | 64.9 µM (inactive) | 27 µM (inactive) | 33.3 µM (inactive) | 25.2 µM (inactive) | 21.5 µM (inactive) | 10.4 µM (inactive) | 12.9 µM (inactive) | 19.8 µM (inactive) | 22 µM (inactive) | 16.1 µM (inactive) | 28.3 µM (inactive) | 19.5 µM (inactive) | 21.6 µM (inactive) | 38.4 µM (inactive) | 34.8 µM (inactive) | 18.5 µM (inactive) |  | 22.4 µM (inactive) |
| CCCCC1=C(Br)C(=C(Br)Br)OC1=O | 5.47 µM (inactive) |  |  | 16.5 µM (inactive) | 15.2 µM (inactive) | 3.34 µM (inactive) | 3.17 µM (inactive) | 11 µM (inactive) | 0.379 µM (active) | 1.85 µM (inactive) | 2.25 µM (inactive) | 2.78 µM (inactive) |  | 2.55 µM (inactive) |  | 5.64 µM (inactive) | 2.79 µM (inactive) | 1.87 µM (inactive) |  |  |
| COc1ccc(/C=C/c2cnccn2)cc1OC | > 10 µM (inactive) | > 10 µM (inactive) | > 10 µM (inactive) | > 10 µM (inactive) | > 10 µM (inactive) | > 10 µM (inactive) | > 10 µM (inactive) | > 10 µM (inactive) |  |  | > 10 µM (inactive) | > 10 µM (inactive) | > 10 µM (inactive) | > 10 µM (inactive) | > 10 µM (inactive) | > 10 µM (inactive) | > 10 µM (inactive) | > 10 µM (inactive) |  | > 10 µM (inactive) |
| O=C(NC1C2CC3CC(C2)CC1C3)c1cc(/C=C/c2ccccc2)nc(S)n1 (stereo not drawn) | > 100 µM (inactive) | > 100 µM (inactive) |  | > 100 µM (inactive) | > 100 µM (inactive) | > 100 µM (inactive) | > 100 µM (inactive) |  | > 100 µM (inactive) | > 100 µM (inactive) | > 100 µM (inactive) | > 100 µM (inactive) |  | > 100 µM (inactive) |  | > 100 µM (inactive) | > 100 µM (inactive) | > 100 µM (inactive) | > 100 µM (inactive) |  |
| COc1c2c(c(O)c3c4c(c(C)cc13)C1OC3(C(OC)OC5CC(C)(O)C(OC6CC(C)(O)C(O)C(C)O6)C(C)O5)OC1C(OC)(O4)C31CO1)C(=O)C(O)CC2OC1CC(C)(O)C(OC(C)=O)C(C)O1 (stereo not drawn) | < 0.01 µM (active) | < 0.0112 µM (active) |  | < 0.01 µM (active) | < 0.01 µM (active) | < 0.01 µM (active) | < 0.01 µM (active) | < 0.01 µM (active) | < 0.01 µM (active) | < 0.01 µM (active) | < 0.01 µM (active) | < 0.01 µM (active) |  | < 0.01 µM (active) |  | < 0.01 µM (active) | < 0.01 µM (active) | < 0.01 µM (active) | < 0.01 µM (active) |  |
| O=C(NC1C(O)C(O)C(CO)OC1n1cc(F)c(=O)[nH]c1=O)OCc1ccccc1 (stereo not drawn) | > 100 µM (inactive) | > 100 µM (inactive) |  | > 100 µM (inactive) | > 100 µM (inactive) | > 100 µM (inactive) |  | > 100 µM (inactive) | > 100 µM (inactive) | > 100 µM (inactive) |  | > 100 µM (inactive) |  |  |  | > 100 µM (inactive) | > 100 µM (inactive) | > 100 µM (inactive) | > 100 µM (inactive) |  |
| OCCOCn1nc(-c2ccccc2)nc1-c1cnccn1 | > 100 µM (inactive) |  |  | > 100 µM (inactive) |  | > 100 µM (inactive) | > 100 µM (inactive) | > 100 µM (inactive) | > 100 µM (inactive) | > 100 µM (inactive) | > 100 µM (inactive) | > 100 µM (inactive) | > 100 µM (inactive) | > 100 µM (inactive) | > 100 µM (inactive) | 35 µM (inactive) |  | > 100 µM (inactive) | > 100 µM (inactive) | > 100 µM (inactive) |
| COC(=O)C1OC(Oc2cc(O)c3c(=O)cc(-c4ccc(O)cc4)oc3c2)C(O)C(O)C1O (stereo not drawn) | > 100 µM (inactive) |  |  | > 100 µM (inactive) | > 100 µM (inactive) | > 100 µM (inactive) | > 100 µM (inactive) | > 100 µM (inactive) | > 100 µM (inactive) | > 100 µM (inactive) | > 100 µM (inactive) | > 100 µM (inactive) |  | > 100 µM (inactive) |  | > 100 µM (inactive) | > 100 µM (inactive) | > 100 µM (inactive) |  |  |
